Key:
Details in all cases: treatment time: 24 h
U2OS = assay: cell count relative to DMSO control (panel A, nuclei/RNA/PMG/mitochondria stain) (fraction of control); higher = more cells (less toxicity)
Procedure: (§1)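 U2OS-derived cells in 384-well plates were treated for 24 h with a 7-point 2-fold dilution series (top dose 20 µM for most compounds; final max DMSO 1%), then fixed, stained in four marker panels and imaged on a Cellomics ArrayScan. Cell count per treatment (three replicate plates merged) is given as a fraction of DMSO control. Panel A used parental U2OS, panel B U2OS-mOrange2-Peroxisome, panel C1 U2OS-LMNB1-TUBA1B-ACTB (DRAQ5 nuclei).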

U2OS-LMNB1-TUBA1B-ACTB = assay: cell count relative to DMSO control (panel C1, DRAQ5/ER stain) (fraction of control); higher = more cells (less toxicity)
Procedure: as §1

U2OS-mOrange2-Peroxisome = assay: cell count relative to DMSO control (panel B, lysosome/peroxisome/lipid stain) (fraction of control); higher = more cells (less toxicity)
Procedure: as §1

O=NN(CCCl)C(=O)NC1CCCCC1 [lomustine]
cell count
Details | 0.3125 µM | 0.625 µM | 1.25 µM | 2.5 µM | 5 µM | 10 µM | 20 µM
U2OS | 0.856 | 0.819 | 0.952 | 0.895 | 1.02 | 0.818 | 0.7
U2OS-LMNB1-TUBA1B-ACTB | 0.906 | 0.972 | 0.927 | 0.932 | 1.02 | 0.856 | 0.73
U2OS-mOrange2-Peroxisome | 0.854 | 1.08 | 0.93 | 0.952 | 1.22 | 1.12 | 0.879

C=C1[C@@H](C)[C@H]2[C@H](Cc3ccccc3)NC(=O)[C@]23[C@H](OC(C)=O)/C=C/[C@@](C)(O)C(=O)[C@@H](C)C/C=C/[C@H]3[C@@H]1O [cytochalasin-d]
cell count
Details | 0.000781 µM | 0.0015625 µM | 0.003125 µM | 0.00625 µM | 0.0125 µM | 0.025 µM | 0.05 µM
U2OS | 0.938 | 0.944 | 0.899 | 1 | 0.643 | 0.463 | 0.403
U2OS-LMNB1-TUBA1B-ACTB | 1.08 | 1.04 | 1.04 | 0.821 | 0.499 | 0.374 | 0.356
U2OS-mOrange2-Peroxisome | 0.993 | 1.12 | 1.29 | 1.24 | 0.826 | 0.656 | 0.602

C[C@H]1CCC/C=C/[C@@H]2C[C@H](O)C[C@H]2[C@H](O)/C=C/C(=O)O1 [brefeldin-a]
cell count
Details | 0.3125 µM | 0.625 µM | 1.25 µM | 2.5 µM | 5 µM | 10 µM | 20 µM
U2OS | 0.543 | 0.545 | 0.527 | 0.584 | 0.586 | 0.644 | 0.577
U2OS-LMNB1-TUBA1B-ACTB | 0.698 | 0.697 | 0.661 | 0.616 | 0.632 | 0.584 | 0.529
U2OS-mOrange2-Peroxisome | 0.53 | 0.567 | 0.55 | 0.574 | 0.515 | 0.544 | 0.557

CN(C)[C@@H]1C(O)=C(C(N)=O)C(=O)[C@@]2(O)C(O)=C3C(=O)c4c(O)ccc(Cl)c4[C@@](C)(O)[C@H]3C[C@@H]12 [chlortetracycline]
cell count
Details | 0.3125 µM | 0.625 µM | 1.25 µM | 2.5 µM | 5 µM | 10 µM | 20 µM
U2OS | 1.12 | 1.07 | 1.08 | 1.06 | 1.02 | 0.933 | 0.783
U2OS-LMNB1-TUBA1B-ACTB | 1.15 | 1.12 | 1.1 | 0.983 | 0.989 | 1.07 | 0.897
U2OS-mOrange2-Peroxisome | 0.886 | 0.771 | 0.779 | 0.944 | 1.01 | 0.62 | 0.486

CN1CCC(c2c(O)cc(O)c3c(=O)cc(-c4ccccc4Cl)oc23)[C@@H](O)C1 (stereo partly drawn) [alvocidib]
cell count
Details | 0.3125 µM | 0.625 µM | 1.25 µM | 2.5 µM | 5 µM | 10 µM | 20 µM
U2OS | 0.804 | 0.575 | 0.44 | 0.221 | 0.142 | 0.14 | 0.153
U2OS-LMNB1-TUBA1B-ACTB | 0.864 | 0.789 | 0.569 | 0.314 | 0.253 | 0.239 | 0.257
U2OS-mOrange2-Peroxisome | 1.61 | 1.52 | 1.18 | 1.24 | 1.29 | 0.687 | 0.372

Cn1c(CCCC(=O)O)nc2cc(N(CCCl)CCCl)ccc21 [bendamustine]
cell count
Details | 0.3125 µM | 0.625 µM | 1.25 µM | 2.5 µM | 5 µM | 10 µM | 20 µM
U2OS | 0.945 | 0.814 | 0.265 | 0.1 | 0.145 | 0.133 | 0.162
U2OS-LMNB1-TUBA1B-ACTB | 1.02 | 1.03 | 0.607 | 0.26 | 0.277 | 0.264 | 0.284
U2OS-mOrange2-Peroxisome | 0.462 | 0.439 | 0.374 | 0.371 | 0.366 | 0.422 | 0.454

COc1ccc(C[C@H]2NC[C@H](O)[C@H]2OC(C)=O)cc1 [anisomycin]
cell count
Details | 0.3125 µM | 0.625 µM | 1.25 µM | 2.5 µM | 5 µM | 10 µM | 20 µM
U2OS | 0.794 | 0.502 | 0.186 | 0.0402 | 0.0213 | 0.0357 | 0.053
U2OS-LMNB1-TUBA1B-ACTB | 0.84 | 0.602 | 0.226 | 0.0722 | 0.0685 | 0.0611 | 0.166
U2OS-mOrange2-Peroxisome | 0.678 | 0.277 | 0.0792 | 0.0323 | 0.133 | 0.195 | 0.1

CCN(CC)CCCC(C)Nc1c2ccc(Cl)cc2nc2ccc(OC)cc12 (stereo not drawn) [mepacrine]
cell count
Details | 0.3125 µM | 0.625 µM | 1.25 µM | 2.5 µM | 5 µM | 10 µM | 20 µM
U2OS | 1.02 | 0.981 | 0.98 | 0.921 | 0.925 | 0.85 | 0.616
U2OS-LMNB1-TUBA1B-ACTB | 1.13 | 1.01 | 1.03 | 1.07 | 1.08 | 1.05 | 0.727
U2OS-mOrange2-Peroxisome | 0.781 | 0.889 | 0.854 | 0.763 | 0.778 | 0.733 | 0.449
